Literature values, collected in patent US7914812B2, “Wound care dressing and method using same” (priority 2004, dated 2011).

Conditions: 25° C.

Compound | Solubility ww % (25° C.) [ww %]
OC[C@@H](O)[C@@H](O)CO [Erythritol] | 36
OC[C@@H](O)[C@@H](O[C@@H]1O[C@H](CO)[C@H](O)[C@H](O)[C@H]1O)[C@H](O)[C@@H](O)CO [Lactitol] | 58
OC[C@@H](O)[C@@H](O[C@H]1O[C@H](CO)[C@@H](O)[C@H](O)[C@H]1O)[C@H](O)[C@@H](O)CO [Maltitol] | 60
OC[C@@H](O)[C@@H](O)[C@H](O)[C@H](O)CO [Mannitol] | 18
OC[C@@H](O)[C@@H](O)[C@H](O)[C@@H](O)CO [Sorbitol] | 72
OC[C@@H](O)[C@H](O)[C@@H](O)CO [Xylitol] | 66
Isomalt | 28

Same assay, conditions: at about 37° C., i.e. body temperature; water

Compound | solubility
OC[C@@H](O)[C@@H](O)[C@H](O)[C@H](O)CO [Mannitol] | about 23 grams per 100 grams of water
OC[C@H]1O[C@@](CO)(O[C@H]2O[C@H](CO)[C@@H](O)[C@H](O)[C@H]2O)[C@@H](O)[C@@H]1O [sucrose] | about 78 grams per 100 grams of water
